Results as given in ChEMBL document CHEMBL1151517, “Morpholinoalkylindenes as antinociceptive agents: Novel cannabinoid receptor agonists” (Bioorg Med Chem Lett, 1995).
pIC50: −log10 of the molar value.

How the values were obtained:
Cannabinoid receptor = Cannabinoid receptor (Rattus norvegicus, UniProt Q9QZN9+P20272); test: Displacement of 0.5 nM [3H](R)-(+)-WIN-55212-2 from Cannabinoid receptor of rat cerebellar membranes; format: cell membranes, Membrane
Mus musculus [1] = test: Concentration required for inhibition of electrically stimulated contraction of mouse vas deferens […]; format: functional
Mus musculus [2] = species: Mus musculus; test: Effective dose required for inhibition of oral acetylcholine (ACh) writhing activity in mice; format: functional
Mus musculus [3] = test: Effective dose required for inhibition of oral acetylcholine (ACh) writhing activity in mice at 100 mg/Kg dose; format: functional
Mus musculus [4] = test: Effective dose required for inhibition of oral acetylcholine (ACh) writhing activity in mice at 10 mg/Kg dose; format: functional
[5] = Compound was tested for inhibitory activity against prostaglandin synthetase in mouse brain microsomes
[6] = molecular target: Cannabinoid receptor (Rattus norvegicus) (UniProt Q9QZN9+P20272); test: Inhibition to displace 50% of 0.5 nM [3H](R)-(+)-WIN-55212-2 binding to Cannabinoid receptor in rat cerebellar membranes at 1 uM concentration; format: cell membranes; conditions: Membrane
Cannabinoid receptor (Rattus norvegicus), sequence (P20272 whole entry, looked up): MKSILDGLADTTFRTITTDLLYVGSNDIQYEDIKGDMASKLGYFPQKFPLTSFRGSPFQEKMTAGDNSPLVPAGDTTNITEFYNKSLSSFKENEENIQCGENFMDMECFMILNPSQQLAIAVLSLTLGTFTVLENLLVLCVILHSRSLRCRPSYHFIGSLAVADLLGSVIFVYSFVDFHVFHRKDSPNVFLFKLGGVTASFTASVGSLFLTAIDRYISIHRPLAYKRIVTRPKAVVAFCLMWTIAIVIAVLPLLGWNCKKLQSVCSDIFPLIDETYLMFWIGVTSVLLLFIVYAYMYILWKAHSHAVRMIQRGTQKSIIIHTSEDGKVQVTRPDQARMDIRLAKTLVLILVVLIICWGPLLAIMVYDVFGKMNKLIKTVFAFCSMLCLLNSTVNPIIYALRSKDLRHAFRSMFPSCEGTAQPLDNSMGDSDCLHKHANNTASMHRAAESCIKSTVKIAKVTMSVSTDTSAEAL
Cannabinoid receptor (Rattus norvegicus), sequence (Q9QZN9 whole entry, looked up): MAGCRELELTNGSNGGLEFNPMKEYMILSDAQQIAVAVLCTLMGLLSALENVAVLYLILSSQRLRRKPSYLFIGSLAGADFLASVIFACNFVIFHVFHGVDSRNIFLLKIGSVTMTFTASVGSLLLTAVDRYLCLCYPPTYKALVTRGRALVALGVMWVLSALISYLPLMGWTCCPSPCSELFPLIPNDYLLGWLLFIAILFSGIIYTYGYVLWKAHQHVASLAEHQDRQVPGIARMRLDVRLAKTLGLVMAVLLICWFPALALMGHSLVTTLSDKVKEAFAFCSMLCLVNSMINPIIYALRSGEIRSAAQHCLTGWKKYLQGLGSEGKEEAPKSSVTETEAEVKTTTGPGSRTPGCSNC

Structure (SMILES)	IC50 (Cannabinoid receptor) [µM]	pIC50 (Mus musculus [1])	further results
CC1=C(CCN2CCOCC2)c2ccccc2C1=Cc1cccc2ccccc12	10	7.35	–
COc1ccc(/C=C2\C=C(CCN3CCOCC3)c3ccccc32)cc1	0.058	7.10	–
CSc1ccc(/C=C2\C=C(CCN3CCOCC3)c3ccccc32)cc1	96	–	ED50 (Mus musculus [2]): 50 mg/kg
Oc1ccc(/C=C2\C=C(CCN3CCOCC3)c3ccccc32)c2ccccc12	97	–	–
C[S+]([O-])c1ccc(/C=C2\C=C(CCN3CCOCC3)c3ccccc32)cc1 (centres undefined)	–	6.72	–
COc1ccc(C=C2C(C)=C(CCN3CCOCC3)c3ccccc32)c2ccccc12	–	6.46	inhibition in vivo at 100 mg/kg (Mus musculus [3]): 39%
COc1ccc(C=C2C(C)=C(CCN3CCOCC3)c3ccccc32)cc1	45	–	inhibition in vivo at 100 mg/kg (Mus musculus [3]): 30%
COc1ccc(/C=C2\C=C(CCN3CCOCC3)c3ccccc32)cc1OC	28	7.72	–
C1=C(CCN2CCOCC2)c2ccccc2/C1=C/c1cccc2ccccc12	1	8.15	inhibition in vivo at 10 mg/kg (Mus musculus [4]): 83%
COc1ccc(/C=C2\C=C(CCN3CCOCC3)c3ccccc32)c2ccccc12	0.9	8.10	–
COc1ccc(C(=O)c2c(C)n(CCN3CCOCC3)c3ccccc23)cc1 [PRAVADOLINE]	–	6.28	ED50 (Mus musculus [2]): 41 mg/kg; pIC50 [5]: 5.46
C1=C(CCN2CCOCC2)c2ccccc2/C1=C/c1ccccc1	–	7.10	inhibition [6]: 33%
